Measurements reported in patent US20220213060A1, “Crystal Form of Quinazolinone Compound and Preparation Method Therefor” (Luoxin Healthcare Science and Technology Development …, priority 2019, published 2022).
Where two headings read alike, the source gives them in different places.

Key:
[1] = PK test of plasma on the last day of administration in the BT-474 xenograft study; type: in vivo, BALB/c nude mice; settings: BT-474 tumor-bearing nude mice
Procedure: 0.5-1 hours after administration, the blood concentration reached the peak. The plasma exposure at the dose to play the effect was 69 300 nM*h.

PI3Kβ = target: T1, PI3Kβ (Homo sapiens, UniProt P42338); assay: In vitro enzymatic activity test (ADP-Glo lipid kinase), PI3Kβ; type: biochemical; settings: inhibitory activity against PI3Kα relative to PI3Kβ
T1 construct: purchased Promega V1751
T1 sequence (P42338 whole entry): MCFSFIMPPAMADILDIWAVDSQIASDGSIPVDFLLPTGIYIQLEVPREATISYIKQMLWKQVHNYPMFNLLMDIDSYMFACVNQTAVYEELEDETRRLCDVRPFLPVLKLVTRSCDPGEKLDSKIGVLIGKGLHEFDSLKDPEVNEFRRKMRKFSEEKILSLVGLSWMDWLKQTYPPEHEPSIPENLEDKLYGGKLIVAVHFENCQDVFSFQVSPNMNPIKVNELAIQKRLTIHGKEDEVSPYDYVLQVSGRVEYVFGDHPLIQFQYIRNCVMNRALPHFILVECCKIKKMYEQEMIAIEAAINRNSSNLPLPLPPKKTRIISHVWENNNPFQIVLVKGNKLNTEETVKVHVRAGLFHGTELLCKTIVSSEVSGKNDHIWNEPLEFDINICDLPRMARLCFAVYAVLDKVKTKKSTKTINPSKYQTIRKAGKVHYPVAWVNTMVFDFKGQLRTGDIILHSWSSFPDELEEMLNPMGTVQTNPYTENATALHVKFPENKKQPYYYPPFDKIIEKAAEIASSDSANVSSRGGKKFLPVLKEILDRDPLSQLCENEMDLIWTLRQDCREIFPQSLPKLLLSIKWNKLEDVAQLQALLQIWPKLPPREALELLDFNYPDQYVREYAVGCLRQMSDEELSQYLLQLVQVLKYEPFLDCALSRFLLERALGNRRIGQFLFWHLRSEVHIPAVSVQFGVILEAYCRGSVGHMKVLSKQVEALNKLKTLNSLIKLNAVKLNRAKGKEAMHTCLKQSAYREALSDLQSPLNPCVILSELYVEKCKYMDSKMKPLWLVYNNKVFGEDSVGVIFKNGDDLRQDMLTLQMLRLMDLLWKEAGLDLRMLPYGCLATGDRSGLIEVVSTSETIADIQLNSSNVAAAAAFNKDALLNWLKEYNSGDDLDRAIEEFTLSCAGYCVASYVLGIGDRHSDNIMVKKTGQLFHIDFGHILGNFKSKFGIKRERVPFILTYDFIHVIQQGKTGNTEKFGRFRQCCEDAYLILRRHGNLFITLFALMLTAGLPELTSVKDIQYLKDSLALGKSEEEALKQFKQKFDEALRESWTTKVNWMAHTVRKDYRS
T1 sequence (P27986 whole entry partner): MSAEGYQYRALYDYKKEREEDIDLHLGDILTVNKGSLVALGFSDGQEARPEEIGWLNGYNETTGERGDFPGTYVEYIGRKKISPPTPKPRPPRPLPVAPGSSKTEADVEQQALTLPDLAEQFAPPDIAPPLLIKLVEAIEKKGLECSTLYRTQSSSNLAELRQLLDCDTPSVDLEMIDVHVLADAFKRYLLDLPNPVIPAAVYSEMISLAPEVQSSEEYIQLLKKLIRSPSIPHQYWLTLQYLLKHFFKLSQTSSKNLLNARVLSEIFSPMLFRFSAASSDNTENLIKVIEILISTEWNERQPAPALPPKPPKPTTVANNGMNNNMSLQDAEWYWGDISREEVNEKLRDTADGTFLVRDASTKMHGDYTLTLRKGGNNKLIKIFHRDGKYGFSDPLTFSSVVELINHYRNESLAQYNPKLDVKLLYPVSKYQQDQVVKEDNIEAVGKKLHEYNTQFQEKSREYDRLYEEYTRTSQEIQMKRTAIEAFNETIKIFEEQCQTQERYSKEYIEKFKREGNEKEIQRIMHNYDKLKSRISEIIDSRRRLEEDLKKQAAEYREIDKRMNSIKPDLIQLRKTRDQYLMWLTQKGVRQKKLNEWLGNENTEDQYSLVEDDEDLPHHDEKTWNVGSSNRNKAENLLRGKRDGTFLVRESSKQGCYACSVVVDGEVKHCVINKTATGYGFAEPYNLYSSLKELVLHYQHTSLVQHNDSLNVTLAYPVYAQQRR
Procedure: (§1) The lipid kinase reaction was carried out in a suitable substrate and under ATP conditions, then the activity of the kinase was detected by ADP-Glo™ kit in two steps. Step 1: the kinase reaction was terminated, in which the residual ATP was completely removed and only ADP was retained; step 2: kinase detection reagent was added to convert ADP to ATP, accompanied by fluorescein/luciferase reaction. Finally, the fluorescence value output was converted into kinase activity.
(§2) Experimental Materials and Equipment:
(§3) 2) Kit: ADP-Glo™ lipid kinase and PIP2:3PS kit (Promega #V1792)
(§4) The reagent kit contains: 1 mM PIP2:3PS, 10× lipid dilution buffer, 1 M magnesium chloride, 10 mM ATP, 10 mM ADP, ADP-Glo reagent, detection buffer and detection substrate.
(§5) 3) Reaction plate: OptiPlate-384, white and transparent (PerkinElmer #6007299)
(§6) 1) 10× reaction buffer: 500 mM HEPES, pH 7.5, 500 mM NaCl, […]; BSA: 10% stock solution, self-made
(§7) 2) Final test system conditions: 1× reaction system: 50 mM of HEPES, 50 mM of NaCl, 3 mM of MgCl2, 0.01% BSA (freshly prepared on the day of experiment), 1% DMSO (v/v)+/−compound
(§8) 3) Reaction system: 3 μL of mixture of enzyme and substrate (1:1)+2 μL of ATP/MgCl2 mixture+5 μL of ADP-Glo reagent+10 μL of detection reagent.
(§9) The specific experimental operations were as follows: […]
(§10) (16) Fluorescence values were measured on the Envision instrument.

PI3Kδ = target: T2, PI3Kδ (Homo sapiens, UniProt O00329); assay: In vitro enzymatic activity test (ADP-Glo lipid kinase), PI3Kδ; type: biochemical; settings: inhibitory activity against PI3Kα relative to PI3Kδ
T2 construct: purchased Millipore 14-604-K
T2 sequence (O00329 whole entry): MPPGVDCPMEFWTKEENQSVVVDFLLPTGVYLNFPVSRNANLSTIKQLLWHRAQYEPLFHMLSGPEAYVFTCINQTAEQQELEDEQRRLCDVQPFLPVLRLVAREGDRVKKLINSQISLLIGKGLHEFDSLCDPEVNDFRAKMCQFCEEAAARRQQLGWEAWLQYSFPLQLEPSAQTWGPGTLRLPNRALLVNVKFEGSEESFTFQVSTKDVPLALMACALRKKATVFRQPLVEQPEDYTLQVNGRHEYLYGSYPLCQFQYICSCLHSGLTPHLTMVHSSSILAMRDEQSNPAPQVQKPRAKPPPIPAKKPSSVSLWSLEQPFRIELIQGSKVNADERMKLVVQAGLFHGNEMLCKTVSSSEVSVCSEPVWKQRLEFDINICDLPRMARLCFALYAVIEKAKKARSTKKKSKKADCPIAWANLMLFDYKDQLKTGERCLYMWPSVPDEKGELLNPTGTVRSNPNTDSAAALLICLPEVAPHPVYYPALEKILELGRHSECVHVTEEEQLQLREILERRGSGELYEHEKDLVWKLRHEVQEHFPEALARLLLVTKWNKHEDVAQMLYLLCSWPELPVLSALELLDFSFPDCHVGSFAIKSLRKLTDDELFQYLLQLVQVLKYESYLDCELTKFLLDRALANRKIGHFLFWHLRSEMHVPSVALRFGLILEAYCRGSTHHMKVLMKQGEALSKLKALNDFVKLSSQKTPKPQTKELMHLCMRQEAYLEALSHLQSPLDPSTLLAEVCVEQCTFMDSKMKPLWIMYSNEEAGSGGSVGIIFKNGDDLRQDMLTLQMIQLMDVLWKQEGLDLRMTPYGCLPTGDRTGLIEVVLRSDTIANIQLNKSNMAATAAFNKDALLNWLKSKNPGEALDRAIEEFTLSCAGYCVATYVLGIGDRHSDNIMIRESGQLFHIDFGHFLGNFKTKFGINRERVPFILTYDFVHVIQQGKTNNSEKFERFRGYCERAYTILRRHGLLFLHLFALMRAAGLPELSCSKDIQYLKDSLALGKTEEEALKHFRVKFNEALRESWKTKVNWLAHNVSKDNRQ
T2 sequence (P27986 whole entry partner): as the sequence (P27986 whole entry partner) above
Procedure: as §1, §2, §3, §4, §5, §6, §7, §8, §9, §10

Mutant PI3Kα (H1047R) = Mutant PI3Kα (H1047R) (Homo sapiens, UniProt P42336, H1047R); assay: In vitro enzymatic activity test, mutant PI3Kα (H1047R); type: biochemical
Sequence of Mutant PI3Kα (H1047R) (P42336 whole entry H1047R): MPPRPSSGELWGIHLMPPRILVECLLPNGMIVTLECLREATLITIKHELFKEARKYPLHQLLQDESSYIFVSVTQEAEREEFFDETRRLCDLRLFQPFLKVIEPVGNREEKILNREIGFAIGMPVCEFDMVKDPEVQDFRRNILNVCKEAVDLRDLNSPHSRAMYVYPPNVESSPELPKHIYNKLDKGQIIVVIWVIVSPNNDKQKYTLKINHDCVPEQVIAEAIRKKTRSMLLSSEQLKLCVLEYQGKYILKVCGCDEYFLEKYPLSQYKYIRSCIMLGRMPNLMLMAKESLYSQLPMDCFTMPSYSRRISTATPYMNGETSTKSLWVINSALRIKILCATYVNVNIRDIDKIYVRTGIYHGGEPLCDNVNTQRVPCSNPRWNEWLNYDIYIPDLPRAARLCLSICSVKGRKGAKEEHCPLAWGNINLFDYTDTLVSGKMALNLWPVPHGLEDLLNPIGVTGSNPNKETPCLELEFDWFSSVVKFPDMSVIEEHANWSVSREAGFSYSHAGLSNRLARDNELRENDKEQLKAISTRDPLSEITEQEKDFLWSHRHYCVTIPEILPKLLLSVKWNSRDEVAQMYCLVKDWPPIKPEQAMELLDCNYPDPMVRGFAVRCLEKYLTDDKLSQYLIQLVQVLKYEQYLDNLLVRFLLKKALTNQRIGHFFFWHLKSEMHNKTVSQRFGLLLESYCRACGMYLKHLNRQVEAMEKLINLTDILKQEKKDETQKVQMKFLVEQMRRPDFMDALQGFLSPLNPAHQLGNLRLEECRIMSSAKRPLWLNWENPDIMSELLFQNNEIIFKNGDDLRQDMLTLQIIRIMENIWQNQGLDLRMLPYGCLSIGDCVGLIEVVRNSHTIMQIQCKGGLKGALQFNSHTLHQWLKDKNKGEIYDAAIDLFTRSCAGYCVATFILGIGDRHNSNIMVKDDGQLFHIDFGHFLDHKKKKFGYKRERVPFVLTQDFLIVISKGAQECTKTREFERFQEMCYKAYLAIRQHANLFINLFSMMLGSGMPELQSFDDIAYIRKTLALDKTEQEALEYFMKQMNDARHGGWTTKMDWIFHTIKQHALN
Sequence of Mutant PI3Kα (H1047R) (P27986 whole entry partner): as the sequence (P27986 whole entry partner) above
Text: The crystal form A of the compound represented by formula (I) has a strong inhibitory effect on both wild-type and mutant PI3Kα kinases. […] The crystal form A of the compound represented by formula (I) has excellent selectivity to the other three subtypes of PI3K, and its inhibitory activity against PI3Kα is 149/7.44/6.61 times higher than that of PI3Kβ/δ/γ, respectively. The specific experimental method was the same as experimental embodiment 8. […] The specific experimental method was the same as experimental embodiment 9.
as §1, §2, §3
The reagent kit contains: 1 mM PIP2:3PS, 10× lipid dilution buffer, 1 M magnesium chloride, 10 mM ATP, 10 mM ADP, ADP-Glo reagent, detection buffer and detection substrate. […]
as §10

[2] = Beagle dog absorption test (pharmacokinetics); type: in vivo, Beagle dogs
Procedure: Beagle dogs were given the crystal form A of the compound represented by formula (I) by single or multiple oral administration and single intravenous injection respectively, with 6 dogs in each group, half male and half female. The single oral doses were 0.3, land 3 mg/kg respectively; the multiple doses were 1 mg/kg, once a day for 7 consecutive days; the single intravenous dose was 0.3 mg/kg. According to the drug plasma concentration-time curve, the pharmacokinetic parameters were calculated, the results are shown in Table 15. The vehicle for drug preparation in group 1 was 5% HP-beta-CD, 5% solutol, pH=8 aqueous solution, the vehicles for groups 2, 3, 4 were 0.5% MC, 0.2% Tween80 aqueous solution.

[3] = both sexes, beagle, dog, plasma, po, 0.3 mg/kg, male and female Beagle dogs, single
[4] = both sexes, dog, plasma, iv, male and female Beagle dogs, vein, 0.3 mg/kg, single
[5] = both sexes, dog, plasma, male and female Beagle dogs, oral, 0.3 mg/kg, single
[6] = both sexes, dog, plasma, male and female Beagle dogs, oral, 1 mg/kg once a day, day 7
[7] = both sexes, dog, plasma, male and female Beagle dogs, oral, 1 mg/kg, day 1
[8] = both sexes, dog, plasma, male and female Beagle dogs, oral, 3 mg/kg, single
[9] = male and female beagle dogs, oral, 1 mg/kg for 7 consecutive days, 7 days after the administration
[10] = male and female beagle dogs, oral, 1 mg/kg, 1 day after the administration

Structure (SMILES): CNC(=O)[C@H](C)Cn1cnc2ccc(-c3cnc(OC)c(NS(=O)(=O)c4ccc(F)cc4F)c3)cc2c1=O
- Plasma exposure at the dose to play the effect ([1]; oral 10 mg/kg, last day of administration): 69 300 nM*h
- Plasma exposure with the increase of administration dose ([1]; oral 10, 20, 40 mg/kg): increased linearly
- Time after administration at which the blood concentration reached the peak ([1]; oral, last day of administration): 0.5 to 1 h
- Selectivity PI3Kα/β (kinase) (PI3Kβ): 149 times
- Selectivity PI3Kα/δ (kinase) (PI3Kδ): 7.44 times
- IC50 (Mutant PI3Kα (H1047R)): 0.69 nM
- AUC(0-t) ([2]; both sexes, beagle, dog, plasma, iv, 0.3 mg/kg, male and female Beagle dogs, vein, single): 1.47 ± 0.353 µM·h
- AUC(0-t) [2, 3]: 1.29 ± 0.715 µM·h
- bioavailability [2, 3]: 87.8%
- AUC(0-t) ([2]; both sexes, beagle, dog, plasma, po, 1 mg/kg, male and female Beagle dogs, oral, 1 mg/kg once a day, day 7): 5.88 µM·h
- AUC(0-t) ([2]; both sexes, beagle, dog, plasma, po, 1 mg/kg, male and female Beagle dogs, oral, 1 mg/kg, day 1): 4.98 ± 0.946 µM·h
- AUC(0-t) ([2]; both sexes, beagle, dog, plasma, po, 3 mg/kg, male and female Beagle dogs, single): 14.8 ± 2.51 µM·h
- C0 [2, 4]: 512 nM
- clearance [2, 4]: 6.18 ± 1.49 mL/min/kg
- half-life [2, 4]: 6.32 ± 1.62 h
- Vd ([2]; both sexes, dog, plasma, iv, male and female Beagle dogs, vein, 0.3 mg/kg, single, read-out: Vdss): 2.47 ± 0.391 L/kg
- Tmax [2, 5]: 2 ± 1.1 h
- half-life [2, 5]: 6.92 ± 3.16 h
- Cmax ([2]; both sexes, dog, plasma, male and female Beagle dogs, oral, 0.3 mg/kg, single, read-out: Cmax): 158 ± 68.4 nM
- Cmax at 7 days [2, 6]: 850 nM
- Tmax at 7 days [2, 6]: 1.33 h
- half-life at 7 days [2, 6]: 5.18 ± 0.487 h
- Tmax [2, 7]: 1.67 ± 0.516 h
- half-life [2, 7]: 5 ± 1.44 h
- Cmax ([2]; both sexes, dog, plasma, male and female Beagle dogs, oral, 1 mg/kg, day 1, read-out: Cmax): 656 ± 30.7 nM
- Tmax [2, 8]: 3.08 ± 1.5 h
- half-life [2, 8]: 6.55 ± 1.76 h
- Cmax ([2]; both sexes, dog, plasma, male and female Beagle dogs, oral, 3 mg/kg, single, read-out: Cmax): 1880 ± 274 nM
- AUC0-last [2, 9]: 5.88 ± 0.697 µM·h
- Cmax [2, 9]: 850±106 nm
- AUC0-last [2, 10]: 4.98 ± 0.946 µM·h
- Cmax [2, 10]: 656±30.7 nm
